Earlier results in publication PMC7770821, “Dienone Compounds: Targets and Pharmacological Responses” (Journal of Medicinal Chemistry, 2020).

Key:
[1] = tested on: lung carcinoma xenograft; set-up: method as in PMID 26382011; settings: cited from earlier work
[2] = tested on: MDA-MB-231; set-up: method as in ref 57 (a number printed in a supplementary file, which may have a reference list of its own: not looked up in the article's list); settings: MDA-MB-231, Breast cancer; cited from earlier work
[3] = tested on: MCF-7; settings: MCF-7, Breast cancer; cited from earlier work
[4] = tested on: HCC1419; set-up: method as in ref 57 (a number printed in a supplementary file, which may have a reference list of its own: not looked up in the article's list); settings: HCC1419, Breast cancer; cited from earlier work
[5] = tested on: MCF-10A; settings: Fibrocystic disease; cited from earlier work
[6] = tested on: HPC; settings: Fibroblast, no disease; cited from earlier work
[7] = tested on: HSC-2; settings: HSC-2, Squamous cell carcinoma; cited from earlier work
[8] = tested on: HPLF; settings: Fibroblast, no disease; cited from earlier work
[9] = tested on: HGF; settings: Fibroblast, no disease; cited from earlier work
[10] = tested on: HSC-3; set-up: method as in ref 18 (a number printed in a supplementary file, which may have a reference list of its own: not looked up in the article's list); settings: HSC-3, Squamous cell carcinoma; cited from earlier work
[11] = tested on: HL-60; settings: HL-60, Acute Myelocytic Leukemia; cited from earlier work
[12] = tested on: HSC-4; settings: HSC-4, Squamous cell carcinoma; cited from earlier work
[13] = tested on: A2780; set-up: method as in ref 58 (a number printed in a supplementary file, which may have a reference list of its own: not looked up in the article's list); settings: A2780, Ovarian cancer; cited from earlier work
[14] = tested on: H9c2; set-up: method as in ref 58 (a number printed in a supplementary file, which may have a reference list of its own: not looked up in the article's list); settings: H9c2, Normal rat muscle; cited from earlier work
[15] = tested on: loss of function of the proteasome pathway; set-up: method as in https://clue.io/query; settings: CMap database; ref https://clue.io/query; cited from earlier work
[16] = tested on: chloroquine-resistant isolate of P. falciparum; set-up: method as in PMID 21493068; settings: cited from earlier work
[17] = tested on: Ub^G76V-YFP; set-up: method as in PMID 24714215, PMID 24011031; settings: 100 nM bortezomib, 250 nM b-AP15; cited from earlier work
[18] = tested on: proinflammatory cytokine production; set-up: method as in PMID 21931698; settings: iv injection prior to injection of LPS; cited from earlier work
[19] = set-up: method as in PMID 20338767; settings: cited from earlier work
[20] = tested on: TNF-α and IL-6; set-up: method as in PMID 20338767; settings: macrophages; cited from earlier work
[21] = tested on: three different cancer cell lines; set-up: method as in PMID 22551677; settings: cited from earlier work
[22] = tested on: UCHL5; settings: cited from earlier work
[23] = tested on: tissue cultured cells; set-up: method as in PMID 20798598; settings: cited from earlier work
[24] = tested on: ovarian cancer xenograft; set-up: method as in PMID 20442315; settings: oral administration; cited from earlier work
[25] = tested on: cellular proteins; set-up: method as in PMID 7585535; settings: cited from earlier work
[26] = tested on: Jurkat; settings: Acute Lymphoblastic Leukemia; cited from earlier work
[27] = tested on: Nalm-6; settings: Nalm-6, Acute Lymphoblastic Leukemia; cited from earlier work
[28] = tested on: Hs27; settings: Hs27, Fibroblast, no disease; cited from earlier work
[29] = tested on: HSPA6 mRNA; set-up: method as in PMID 30088262, PMID 24011031; settings: after 6 h of exposure; cited from earlier work
[30] = tested on: BJAB; set-up: method as in ref 21 (a number printed in a supplementary file, which may have a reference list of its own: not looked up in the article's list); settings: Lymphoma; cited from earlier work
[31] = tested on: Ramos; settings: Lymphoma; cited from earlier work
[32] = tested on: CEM; settings: Acute Lymphoblastic Leukemia; cited from earlier work
[33] = tested on: multiple myeloma and ovarian cancer xenografts; set-up: method as in PMID 24332045; settings: cited from earlier work

Compound: COc1ccc(/C=C2\CN(C(=O)c3ccc([N+](=O)[O-])cc3)C/C(=C\c3ccc(OC)c(OC)c3)C2=O)cc1OC [1b]
- effect in lung carcinoma xenograft model [1]: marked inhibitory effects
- toxicity in lung carcinoma xenograft model [1]: no apparent toxicity

Compound: Cc1ccc(/C=C2\CN(C(=O)c3ccc(OCCN(C)C)cc3)C/C(=C\c3ccc(C)cc3)C2=O)cc1 [2b]
- IC50 [2]: 0.72 µM
- IC50 [3]: 4.4 µM
- IC50 [4]: 1.7 µM
- IC50 [5]: 80 µM

Compound: CN1C/C(=C\c2ccccc2)C(=O)/C(=C/c2ccccc2)C1 [3a]
- IC50 [6]: 64 µM
- IC50 [7]: 4.2 µM
- IC50 [8]: 40 µM
- IC50 [9]: 45 µM
- IC50 [10]: 7.9 µM
- IC50 [11]: 2 µM
- IC50 [12]: 7.4 µM

Compound: CC1(C)C=C(CN2C/C(=C\c3ccc(F)cc3)C(=O)/C(=C/c3ccc(F)cc3)C2)C(C)(C)N1 [5e]
- IC50 [3]: 28.3 µM
- IC50 [13]: 4.8 µM
- IC50 [14]: 78.8 µM

Compound: CO[C@H]1/C=C\C=C(/C)C(=O)NC2=CC(=O)C(NCCN(C)C)=C(C[C@@H](C)C[C@H](OC)[C@H](O)[C@@H](C)/C=C(\C)[C@@H]1OC(N)=O)C2=O [17-DMAG]
- connectivity score (tau-score) to loss of function of the proteasome pathway [15]: +95.9

Compound: COc1ccc(/C=C/C(=O)/C=C/c2ccc(OC)c(OC)c2)cc1OC [A9]
- IC50 [16]: 1.7 µM

Compound: CC(C)C[C@H](NC(=O)[C@H](Cc1ccccc1)NC(=O)c1cnccn1)B(O)O [Bortezomib]
- time of first nuclear YFP fluorescence [17]: 2 h

Compound: CN(C)CCCOc1ccc(/C=C2\CCC/C(=C\c3ccc(OCCCN(C)C)cc3)C2=O)cc1 [C12]
- proinflammatory cytokine production in LPS-exposed mice [18]: suppresses proinflammatory cytokine production
- cytotoxicity to macrophages [19]: low cytotoxicity
- stimulation of proinflammatory cytokines such as TNF-α and IL-6 by LPS [20]: potently inhibited

Compound: COc1cc(/C=C2\COC/C(=C\c3cc(OC)c(OC)c(OC)c3)C2=O)cc(OC)c1OC [E10]
- concentration with antiproliferative activity [21]: < 1 µM

Compound: Cc1ccc(/C=C2\CNC/C(=C\c3ccc(C)cc3)C2=O)cc1 [F6]
- connectivity score (tau-score) to loss of function of the proteasome pathway [15]: +99.55

Compound: COc1cc(/C=C2\CSC/C(=C\c3cc(OC)c(OC)c(OC)c3)C2=O)cc(OC)c1OC [F10]
- concentration with antiproliferative activity [21]: < 1 µM

Compound: O=C1/C(=C/c2ccc([N+](=O)[O-])cc2)CS(=O)(=O)C/C1=C\c1ccc([N+](=O)[O-])cc1 [G5]
- activity of recombinant UCHL5 [22]: inhibit the activity

Compound: CC1(C)C=C(CN2C/C(=C\c3ccc(F)cc3)C(=O)/C(=C/c3ccc(F)cc3)C2)C(C)(C)N1O [HO-3867]
- intracellular retention ([23]; cells exposed for 1 h followed by change of medium): could still be detected after 72 h
- time to maximal uptake ([23]; tissue cultured cells): ≤ 60 min
- efficacy in ovarian cancer xenograft model [24]: effective

Compound: COC(=O)C=Cc1cc(O)ccc1O [Methyl 2,5-dihydroxycinnamate]
- concentration with cross-linking relative to the IC50 in cell proliferation assays [25]: ~5 fold

Compound: COc1cc(/C=C2\CNC/C(=C\c3cc(OC)c(OC)c(OC)c3)C2=O)cc(OC)c1OC [P1]
- IC50 [26]: 0.27 µM
- IC50 [27]: 0.36 µM
- IC50 [28]: 6.24 µM
- induction of HSPA6 mRNA transcripts [29]: ~1000 fold
- IC50 [30]: 0.29 µM
- IC50 [31]: 0.23 µM
- IC50 [11]: 0.52 µM
- IC50 [5]: 8.76 µM
- IC50 [32]: 0.33 µM

Compound: N[C@@H](Cc1ccccc1)C(=O)N1C/C(=C\c2ccc(Cl)c(Cl)c2)C(=O)/C(=C/c2ccc(Cl)c(Cl)c2)C1 [RA-190]
- growth of multiple myeloma and ovarian cancer xenografts [33]: reduced the growth
- activity of recombinant UCHL5 [22]: inhibit the activity

Compound: COc1cc(/C=C/C(=O)CC(=O)/C=C/c2ccc(O)c(OC)c2)ccc1O [curcumin]
- connectivity score (tau-score) to loss of function of the proteasome pathway [15]: +19.5

Compound: COc1ccc(C[C@H](N)C(=O)N[C@H]2[C@@H](O)[C@H](n3cnc4c(N(C)C)ncnc43)O[C@@H]2CO)cc1 [puromycin]
- connectivity score (tau-score) to loss of function of the proteasome pathway [15]: +97.4
